pEC50: −log10 of the molar value. In brackets after ≈: the same amount, converted by molar mass.
How the values were obtained:
[1] = system: Acinetobacter baumannii; assay: Antibacterial activity against Acinetobacter baumannii CLB21655 infected in female DBA mouse blood stream infection model assessed as reduction in bacterial burden in spleen at 300 mg/kg, sc pre-infected with bacteria for 0.5 hrs followed by once daily compound administration and measured after 8 hrs (reference value: 6.5 log10CFU/g); type: functional
[2] = system: Acinetobacter baumannii; assay: Selectivity ratio of MIC95 for antibacterial activity against Acinetobacter baumannii ATCC19606 in the presence of 10% human serum to MIC95 for antibacterial activity against Acinetobacter baumannii ATCC19606; type: functional
[3] = Inhibition of wildtype Acinetobacter baumannii MsbA preincubated for 30 mins followed by ATP addition and measured after 1 hrs by Transcreener ADP2 F1 assay
[4] = Plasma protein binding in human at 1000 to 100000 ng/ml by equilibrium dialysis based LC-MS/MS analysis; type: ADME, cell-free; conditions: dose 1000-100000 ng/ml, read-out: PPB (converted)
[5] = AUC (0 to infinity) in male C57BL/6 mouse at 300 mg/kg, sc administered 3 times a day with 3 hrs interval and measured after 24 hrs by LC-MS/MS analysis; type: ADME, organism-based; conditions: mouse, in vivo, sc, 300 mg/kg, 24 h
[6] = Plasma protein binding in dog at 1000 to 100000 ng/ml by equilibrium dialysis based LC-MS/MS analysis; type: ADME, cell-free, Canis lupus familiaris; conditions: dose 1000-100000 ng/ml, read-out: PPB (converted)
[7] = system: Acinetobacter baumannii; assay: Antibacterial activity against Acinetobacter baumannii CLB21655 infected in female DBA mouse lung infection model assessed as fold change in colony forming units in lung at 300 mg/kg, sc pre-infected with bacteria for 2 hrs followed by thrice daily compound administration with 6 hrs interval and measured after 24 hrs relative to control; type: functional
[8] = system: Acinetobacter baumannii; assay: Antibacterial activity against Acinetobacter baumannii ATCC19606 assessed as bacterial growth inhibition incubated for 18 to 20 hrs by microbroth dilution method; type: functional; conditions: time 18-20 hrs
[9] = AUC (0 to infinity) in male C57BL/6 mouse at 300 mg/kg, sc administered once in a day and measured after 24 hrs by LC-MS/MS analysis; type: ADME, organism-based; conditions: mouse, in vivo, sc, 300 mg/kg, 24 h
[10] = Cmax in male C57BL/6 mouse at 300 mg/kg, sc administered once in a day and measured after 24 hrs by LC-MS/MS analysis; type: ADME, organism-based; conditions: in vivo
[11] = system: Acinetobacter baumannii; assay: Antibacterial activity against Acinetobacter baumannii ATCC19606 incubated for 18 to 20 hrs in presence of 50% mouse serum by microbroth dilution method; type: functional; conditions: time 18-20 hrs
[12] = system: Acinetobacter baumannii; assay: Antibacterial activity against Acinetobacter baumannii CLB21655 infected in female DBA mouse blood stream infection model assessed as fold change in colony forming units in spleen at 300 mg/kg, sc pre-infected with bacteria for 0.5 hrs followed by once daily compound administration and measured after 8 hrs relative to control; type: functional
[13] = Cytotoxicity against GFP fused human MT4 cells cultured under serum free condition for 24 hrs by CellTiter-Glo assay; type: toxicity, cell-based; conditions: GFP fused MT4 cells
[14] = system: Acinetobacter baumannii; assay: Antibacterial activity against Acinetobacter baumannii ATCC19606 incubated for 18 to 20 hrs in presence of 10% human serum by microbroth dilution method; type: functional; conditions: time 18-20 hrs
[15] = Cmax in male C57BL/6 mouse at 300 mg/kg, sc administered 3 times a day with 3 hrs interval and measured after 24 hrs by LC-MS/MS analysis; type: ADME, organism-based; conditions: in vivo
[16] = Plasma protein binding in C57BL/6 mouse at 1000 to 100000 ng/ml by equilibrium dialysis based LC-MS/MS analysis; type: ADME, cell-free; conditions: dose 1000-100000 ng/ml, read-out: PPB (converted)
[17] = system: Acinetobacter baumannii; assay: Antibacterial activity against Acinetobacter baumannii CLB21655 infected in female DBA mouse lung infection model assessed as reduction in bacterial burden in lung at 300 mg/kg, sc pre-infected with bacteria for 2 hrs followed by thrice daily compound administration with 6 hrs interval and measured after 24 hrs (reference value: 6.3 log10CFU/g); type: functional

O=C(O)c1cc(CN2CC(Oc3ccc(NS(=O)(=O)c4cnn(-c5ccc(F)cc5)c4)c(C(=O)O)c3)C2)ccc1NS(=O)(=O)c1cnn(-c2ccc(F)cc2)c1
Activity [1]: 3.3 log10CFU/g | Selectivity ratio [2]: 23 | pEC50 [3]: 7.16 | fraction unbound [4]: 0.006 | AUC [5]: 22200 µM·h | fraction unbound [6]: 0.004 | fold change (FC) [7]: 1.9 | MIC95 [8]: 0.277 µM (≈ 0.223 µg/mL) | AUC [9]: 2270 µM·h | Cmax [10]: 662 µM | MIC95 [11]: 50 µM | fold change (FC) [12]: 3.2 | EC50 at 24 h [13]: > 42000 nM | MIC95 [14]: 6.25 µM | Cmax [15]: 626 µM | fraction unbound [16]: 0.002 | Activity [17]: 4.4 log10CFU/g

Source: ChEMBL document CHEMBL5584343, “Cerastecin Inhibition of the Lipooligosaccharide Transporter MsbA to Combat Acinetobacter baumannii: From Screening Impurity to In Vivo Efficacy” (J Med Chem, 2024)
